According to US20240208961A1, “EIF4E INHIBITORS AND USES THEREOF” (PIC Therapeutics, Inc., priority 2022, published 2024):

Experiments:
ZR-75-1 tumor = assay: ZR-75-1 subQ CDX model; assay type: in vivo; conditions: female BALB/c nude mice, 50 mg/kg, PO, QW, FIG. 14
Procedure: Female BALB/c nude mice were inoculated with estrogen tablets (0.36 mg/pellet, 60 days to release) 48 hours before cell inoculation. The xenograft model was established by implantation of […] of ZR-75-1 tumor cell suspension (5×10^6 cells/mouse, with 50% Matrigel) subcutaneously into the right subaxillary of female BALB/c nude mice aged 6-8 weeks. When the average tumor volume reached 153.10 mm^3, the tumor-bearing mice were randomized into treatment groups. The groups were treated as follows: Group 1: vehicle, PO, QW; Group 2: Tamoxifen 10 mg/kg, PO, QD; Group 3: Compound I-11 50 mg/kg, PO, QW.
Cell culture: The ZR-75-1 (breast, ductal carcinoma) cell was purchased from (ATCC® CRL-1500™). The base medium for this cell line ATCC-formulated RPMI-1640 Medium. To make the complete growth medium, the base medium was supplemented with 10% heat inactivated FBS and 1% PS, maintained at 37° C. in an atmosphere containing 5% CO2 in air. The tumor cells were routinely subcultured at a ratio of 1:1.5 to 1:3 every 3-6 days. Cell concentration at harvest time was 5.39×10^7 cells/mL and cell viability was 94.3% before inoculation.
Tumor inoculation: BALB/c nude mice were used in this study. Each mouse was inoculated with estrogen tablets 48 hours before cell inoculation (0.3 mg/pellet, 60 days to release). […]

MCL-1 protein = MCL-1 protein (eIF4E regulated) levels in multiple myeloma cell line MM.1R (FIG. 11B); assay type: cell-based; conditions: MM.1R cells, 2 hours
MM.1S cells = assay: 5 day viability assay in MM.1S cells, I-11 and dexamethasone (Example 7); assay type: cell-based
Procedure: (§1) Compound I-11 was studied in the context of dexamethasone combinations, which is used clinically in early Multiple Myeloma prior to the emergence of steroid resistance and is a common backbone therapy. The MM.1S cell line is a steroid sensitive line, and the MM.1R line is the corresponding cell line which has been driven to steroid resistance. The procedure for these studies was as follows:
(§2) Day 1: Cell Seeding and Compound Dosing
(§3) • Cells were seeded 2×10^5 in 96-well cell culture treated tissue culture plates: 87.5 μL/well; MM.1 S and MM.1R • A 5-fold serial dilution of each compound in DMSO (0-25 mM) was prepared in compound storage plates (stored at −80° C. if not to be used immediately). An 8-point curve was used for compound I-11, and a 6-point curve was used for dexamethasone (0-25 mM). • Cells were rinsed with 1% FBS Media and replaced with 87.5 μL media prior to dosing. • DMSO compound dilution series was diluted in 1% FBS media—2 μL compound in 123 μL media to give a 16× final concentration. Dosing across the plate columns 1-12 (compound I-11 0-400 μM), 6.25 μL 16× in media/well. Dosing down plate rows (columns 1-6 dexamethasone 0-400 μM), 6.25 μL 16× compound in media per well. • Cells were dosed with 12.5 μL for both compounds, with 2 replicates of dosing matrix per 96-well plate. Final volume cells and compound was 100 μL/well. • Media blank 100 μL/well×8 was set up. • All plates were incubated at 37° C.
(§4) Day 6: 5 Day Viability Assay
(§5) • Alamar Blue viability reagent was added (10 μL per well) and incubated for 3 hours at 37° C. prior to fluorescence detection (Ex560 nm/Em590 nm) on a Varioskan Lux multimode plate reader.

MM.1R cells = assay: 5 day viability assay in MM.1R cells, I-11 and dexamethasone (Example 7); assay type: cell-based
Procedure: as §1, §2, §3, §4, §5

4E-BP1 = assay: Hyperphosphorylation of 4E-BP1 in multiple myeloma cell line MM.1R (FIG. 11A); assay type: cell-based; conditions: MM.1R cells, 2 hours

IC50 (MM.1S cells; Homo sapiens, MM1.S, 120 h, MM.1S cells (steroid sensitive), 5 days, Alamar Blue, read-out: IC50 (μM), Viability Assessment (5 Days) in MM.1S Cells): 0.423 µM | IC50 (MM.1R cells; 120 h, MM.1R cells (steroid resistant), 5 days, Alamar Blue, read-out: IC50 (μM), Viability Assessment (5 Days) in MM.1R Cells): 0.179 µM
Compound: CC(C)Cc1sc(Nc2ncc(-c3cccs3)cc2C(=O)O)nc1C(C)(C)C [Compound I-11]
tumor size growth (ZR-75-1 tumor): reduced tumor size growth | MCL-1 protein (eIF4E regulated) levels (MCL-1 protein): reduces | viability of MM.1S cells (MM.1S cells; MM.1S cells, FIG. 12): significant decreases in viability | impact on viability in combination with dexamethasone (MM.1S cells; MM.1S cells, dosing matrix I-11 x dexamethasone, FIG. 13): additive to dexamethasone | viability of MM.1R cells (MM.1R cells; MM.1R cells, FIG. 12): significant decreases in viability | relative levels of hyperphospho-4E-BP1 (4E-BP1): significantly lowers relative levels of hyperphospho-4E-BP1
